Reference: patent US20050266106A1, “Use of fermented wheat germ extract as anti-inflammatory agent” (priority 2002, published 2005)

Test system: adjuvant arthritis (AA)
Assay: histological studies of joints of AA rats
Type: in vivo
Description: The affected joints of the right hind foot pad together with the epiphyses of the bones and the surrounding fibrous and muscular tissues were fixed in buffered neutral 4% formalin. Decalcification was performed by using EDTA and the samples were embedded into paraffin. 8 μm thin longitudinal sections were cut and the sections were stained with hemotoxiline (H) and eosine (E). In the selected positive control and in the treated cases an immunoperoxidase reaction was performed to show CD4 and CD8 positive T-lymphocytes. The used antibody was the product of Santa Cruz (Santa Cruz, Calif., USA), applied in 1:100 dilution.
There was no significant difference between the groups receiving 24-hour and 14-day pretreatment, respectively.

Compound	Histological grade (average 1 to 3) of inflammatory infiltrates (2 × 0.05 mg/kg/day, 14-day pretreatment)	Histological grade (average 1 to 3) of inflammatory infiltrates (2 × 0.05 mg/kg/day, 24-hour pretreatment)	Histological grade (average 1 to 3) of inflammatory infiltrates (2 × 0.5 mg/kg/day, 14-day pretreatment)	Histological grade (average 1 to 3) of inflammatory infiltrates (2 × 0.5 mg/kg/day, 24-hour pretreatment)
C[C@@H]1C[C@H]2[C@@H]3CCC4=CC(=O)C=C[C@]4(C)[C@@]3(F)[C@@H](O)C[C@]2(C)[C@@]1(O)C(=O)CO [Dexamethasone]	1.2	1.4	–	–
COc1ccc2c(c1)c(CC(=O)O)c(C)n2C(=O)c1ccc(Cl)cc1 [Indomethacin]	–	–	1.2	1.0
